Results: US20240408081A1, “NOVEL SYNERGISTIC COMBINATIONS AND METHODS OF USE THEREOF FOR TREATING CANCERS” (UNIVERSITE DE BORDEAUX, priority 2021, published 2024)

Legend:
Huh6 and HepG2 cells = assay: Clonogenicity assay; assay type: cell-based, human; conditions: GSK-126 3 and 4 μM for Huh6 and HepG2; ATR 8 μM; SIM 4 μM; 10 days
Protocol: Huh6 and HepG2 cells were seeded at 500 and 1000 cells/well respectively in 12-well plates. After attachment, cells were treated with drugs.
Following incubation at 37° C. for 10 days, the cells were fixed with 4% PFA and stained with 0.05% crystal violet. Reading under the Fusion FX (Vilber Lourmat).

Huh6 cells = assay: Huh6 tumor xenografts in NSG mice; assay type: in vivo, NOD/LtSz-scid IL2R gamma null (NSG) mice; conditions: intraperitoneal; GSK-126 50 mg/kg, ATR 20 mg/kg 3-times a week; cisplatin 1 mg/kg twice a week
Protocol: NOD/LtSz-scid IL2R gamma null (NSG) mice were bred in standard conditions compliant with regulatory bodies (French government). Sterilized food and water were accessible ad libitum. One million of Huh6 cells in 50% of Matrigel were subcutaneously injected in a total volume of 100 μl in the right flank of 8- to 9-week-old female mice (26-32 g; APAFIS #32917-2021121316283534 v2, Agreement #B33063916, Ministère de l'Enseignement Supérieur, de la Recherche et de l'Innovation).
Tumor growth was monitored by caliper measurement until tumors reached an average volume of 250 mm3 (at day 12, see arrow). […] The vehicle (PBS with 5% DMSO) was injected 3-times a week. Tumor growth was monitored during 16 additional days until tumors control reached a size of 2000 mm3. Thus, all mice were euthanized. Blood was collected from all euthanatized mice and circulating ASAT, ALAT, creatinine, and urea were measured to evaluate the toxicity of the different treatments on the liver and kidneys.

H3K27me3, HMGCR = assay: Western blots of H3K27me3 and HMGCR in hepatoblastoma cells; assay type: cell-based, human; conditions: Huh6 and HepG2
Protocol: Cells were lysed and total proteins were extracted 48 hours after treatment or 72 hours after genetic manipulation using a mixture of RIPA buffer (Sigma), protease inhibitors and phosphatase inhibitor cocktail (Roche). After protein quantification with BCA Protein Assays (ThermoFisher), 40 μg of total proteins were loaded in 4-15% pre-casted gels (Bio-Rad) for migration. Then, proteins were transferred onto a nitrocellulose membrane (Transblot® Turbo midi-size, Bio Rad). The membranes were blocked with 5% BSA or Odyssey blocking buffer (LI-COR Biosciences) and detected with the corresponding antibodies (Table 2). The revelation was performed by chemiluminescence using Fusion FX (Vilber Lourmat) and quantification was done using ImageJ software (National Institutes of Health, Bethesda, Maryland, USA).

HepG2 cells = assay: Cell viability assay (CellTiter 96 AQueous One / MTS) in HepG2; assay type: cell-based, human
Protocol: For 2D culture, a total of 2,000 cells/well for Huh6 and 3,000 cells/well for HepG2 were seeded in 96-well microtiter plates. Cell growth was measured at 24 h, 48h, 72h or 96h after genetic manipulation and at 48h or 72h after drug treatment using the in vitro MTS assay Kit or Sulforhodamine B (SRB, Absorbance at 565 nm) assay (Sigma) following manufacturer's instructions. For 3D culture, spheroids were formed as described above and microplates were incubated in an IncuCyte® S3 live cell analysis system and scanned every 8 hours. For genetic manipulation, the lentiviral transductions or the gene depletions were done before the plating. For drug treatments, depending on the experiment and the drug, spheroids were treated at day 4 or 5 for 48h or 72h. Cell viability assay in spheroids was done using 1 μM calcein AM (BioLegend) and 2 μM ethidium homodimer 1 (Sigma) for 30 minutes at 37° C. Spheroids were imaged using an IncuCyte® S3 live cell analysis system. For all cell viability assays, drugs were used at half maximal inhibitory concentration (IC50).

[1] = system: NEM157i and SU-DIPG-IVi DMG cells; assay: Apoptosis assay (Annexin V-PE / 7-AAD flow cytometry) in DMG cells; assay type: cell-based, human; conditions: 5 days of treatment
Source text: After exposure to drugs at indicated concentrations and times, cells were labeled with Annexin V-PE (BD Biosciences, Le Pont de Claix, France) and 7-AminoActinomycin D (7-AAD) (BD Bioscience) and analyzed using Flow Cytometry as described.

[2] = system: DMG cell lines including primary BXdmg1 cells; assay: DMG spheroid formation assay; assay type: cell-based, human; conditions: 24 hours; GSK-126 20 μM for NEM157i and 15 μM for the others
Protocol: For spheroid formation assays, 10^4 cells were used per well in a 96-well plate. Volume of methylcellulose/medium/cells and inhibitors (10, 15 or 20 μM) mixture per well was 100 μL with a final concentration of methylcellulose at 0.5%. After rapid and gentle homogenization, the mixture was placed on a round-bottom cell culture microplate (U-shaped) treated to limit cell adhesion. After, spheroids were incubated in an incubator at 37° C. and 5% CO2 for 24 hours. Photos and films of spheroids were taken by an InCellis cell imager (Bertin instruments, Montigny-le-bretonneux, France).

CC[C@H](C)n1cc(C)c2c(C(=O)NCc3c(C)cc(C)[nH]c3=O)cc(-c3ccc(N4CCNCC4)nc3)cc21 [GSK-126, 1-[(2S)-butan-2-yl]-N-[(4,6-dimethyl-2-oxo-1H-pyridin-3-yl)methyl]-3-methyl-6-[6-(1-piperazinyl)-3-pyridinyl]-4-indolecarboxamide]
proliferation and survival of hepatoblastoma cells (clonogenic cell assay) (Huh6 and HepG2 cells): little effect | development of hepatoblastoma in mice (tumor volume) (Huh6 cells): no effect | trimethylation of histone H3 Lysine 27 (H3K27me3, HMGCR; GSK-126 at IC50): reduced | expression of HMGCR (H3K27me3, HMGCR): triggered | IC25 dose (HepG2 cells): 4 µM | IC50 (HepG2 cells; Homo sapiens): 8 µM | tumor cell apoptosis [1]: increase in tumor cell apoptosis | spheroid formation [2]: spheroid formation was affected
